Where a name gives a salt, the structure may show the parent alone.
Experiments:
Test in all cases: CAT transient transfection
[1] = system: normal human fibroblasts; type: cell-based
Method: (§1) A one-to-one mixture (by weight) of the desired lipid and dioleylphosphatidyl ethanolamine was prepared in CHCl3. The CHCl3 was removed on the rotary evaporator to obtain a thin film of lipid mixture. The mixture was hydrated with enough water to obtain approximately 1.25 mg of lipid per ml of solution. The solution was passed through a microfluidizer twice and diluted to 1 mg/ml. The liposome formulation was then filtered through a 0.2 μ filter. Compound 8 was also formulated without DOPE either by sonication at 1 mg/ml in water or by dissolving a dried lipid film with ethanol and then adding water to give a final concentration of 2.5 mg/ml. Ethanol was 10% of that volume. In some instances, this was further diluted with water to 1 mg/ml, 4% ethanol.
(§2) Baby hamster kidney (BHK-21) , COS-7, HeLa-S3 cells, and normal human fibroblasts isolated from newborn foreskin dermis were grown in Dulbecco's-modified Eagle's medium (DMEM) containing 10% fetal bovine serum (FBS), 2 mM L-glutamine (gln), 0.1 mM MEM nonessential amino acids (NEAA), 100 U/ml penicillin, and 100 μg/ml streptomycin. NIH-3T3 cells were grown in DMEM containing 10% calf serum (CS), 2 mMgln, 0.1 mM NEAA 100 U/ml penicillin, and 100 μg/ml streptomycin. PC12 cells were grown in DMEMcontaining 10% horse serum, 5% FBS, 2 mM gln, 0 1 mMNEAA, 100 U/ml penicillin and 100 μ/ml streptomycin. Jurkat cells (human lymphoid cell line) were grown in RPMI-1640 supplemented with 10% FBS, 2mML-glutamine, 100 U/ml penicillin, and 100 μg/ml streptomycin. Human keratinocytes were isolated from newborn foreskin epidermis and cultured in Keratinocyte Growth Medium (Clonetics, San Diego, Ca.). All cell lines were maintained in a humidified incubator with a 5% CO2 atmosphere at 37° C.
(§3) pSV2CAT (5.0 Kb) was described previously (Gorman, C. M. et al. (1982) Mol. Cell. Biol. 2:1044). pCMVCAT (5.0 Kb) was also described previously (Foecking M. K. and Hofstetter, H. (1986) Gene 45:101). Plasmid DNA was purified by isopycnic centrifugation in CsCl/EtBr gradients after recovery by alkaline lysis (Maniatis, T. et al. (1982) in Molecular Cloning: A Laboratory Manual, Cold Spring Harbor Laboratory, Cold Spring Harbor, N.Y., pp. 90-91).
(§4) For transient transfection of pSV2CAT DNA or pCMVCAT DNA, cells were plated in 6-well tissue culture dishes (35 mm wells) and incubated overnight to approximately 60% confluency. To transfect cells in one well, 1-2 μg of pSV2CAT DNA or pCMVCAT DNA was diluted in 100 μl Opti-MEM I. Cationic lipids were diluted separately in another 100 μl aliquot of Opti-MEM I. The two solutions were then mixed in a polystyrene tube, incubated for 10-15 min at room temperature to allow the formation of a DNA-liposome complex, and diluted to one ml by adding 0.8 ml Opti-MEM I or DMEM containing 5% fetal bovine serum (FBS), 2 mMgln, 0.1 mMNEAA, and lacking antibiotics. The cells were washed once with Opti-MEM I or serum-free DMEM, and the DNA-liposome complex was added directly to the cells. After a six hr incubation at 37° C., the transfection complexes were removed and two ml of DMEM containing 10% FBS, 2 mMgln, 0.2 mMNEAA, 100 U/ml penicillin, and 100 μg/ml streptomycin, was added to each well. Note: human keratinocytes were cultured and transfected in Keratinocyte Growth Medium. Cells were incubated for an additional 48 hrs and lysed in situ by freeze-thawing once or twice in 300 μl 0.1M Tris-HC1, pH 7.8-8.0 containing 0 1% Triton X-100. Cell lysates were assayed for CAT activity.
(§5) Cell lysates were assayed for CAT activity as described by Neumann et al. (1987) BioTechniques 5:444 using [^14 C]-butyryl coenzyme A (New England Nuclear, Boston, Mass.). The enzyme reactions were incubated for 2 hrs at 37° C., overlayed with 3.0 ml Econofluor (New England Nuclear) and then incubated for an additional 2 hrs to allow diffusion of the acetylated chloramphenicol into the scintillation fluid. CAT activity was determined by measuring radioactivity in a liquid scintillation counter. […]

[2] = system: normal human keratinocytes; type: cell-based; conditions: keratinocytes
Method: as §1, §2, §3, §4, §5

[3] = system: COS-7 cells; type: cell-based
Method: as §1, §2, §3, §4, §5

[4] = system: NIH-3T3 cells; type: cell-based, mouse
Method: as §1, §2, §3, §4, §5

[5] = system: BHK-21 cells; type: cell-based, baby hamster
Method: as §1
Baby hamster kidney (BHK-21) , COS-7, HeLa-S3 cells, and normal human fibroblasts isolated from newborn foreskin dermis were grown in Dulbecco's-modified Eagle's medium (DMEM) containing 10% fetal bovine serum (FBS), 2 mM L-glutamine (gln), 0.1 mM MEM nonessential amino acids (NEAA), 100 U/ml penicillin, and 100 μg/ml streptomycin. […]
Cell lysates were assayed for CAT activity as described by Neumann et al. (1987) BioTechniques 5:444 using [^14 C]-butyryl coenzyme A (New England Nuclear, Boston, Mass.). […] CAT activity was determined by measuring radioactivity in a liquid scintillation counter. […]

For `CCCCCCCC/C=C\CCCCCCCCOCC(C[N+](C)(C)CCNC(=O)C(CCCNCCCN)NCCCN)OCCCCCCCC/C=C\CCCCCCCC` (stereo not shown) [Compound 8, 1-Propanaminium, N-[2-[[2,5-bis[(3-amino]-1-oxopentyl]amino]ethyl]-n,n-dimethyl-2,3,-bis(9-octadecenyloxy)-, tetra(trifluoroacetate) salt], the “DNA transfection (in words)” value [1] was “successfully transfected”, the “DNA transfection (in words)” value [2] was “highly effective” and the “CAT ACTIVITY” value ([3]; 12 μg lipid, 1 μg pSV2CAT, 6 h DMEM) was 14,282 CPM/150 ul. The “DNA transfection (in words)” value ([3]; Cos-7) was “highly effective”, the “CAT ACTIVITY” value ([4]; 15 μg lipid, 2 μg pCMVCAT, 6 h DMEM) was 30,488 CPM/150 ul and the “DNA transfection (in words)” value ([4]; NIH-3T3) was “highly effective”. For the same compound, the “DNA transfection (in words)” value [5] was “highly effective”.

Source: US5334761A, “Cationic lipids” (Life Technologies, Inc., priority 1992, dated 1994)
